O=C1OC[C@H]2[C@@H]1N(Cc1ccccc1)C(=O)N2Cc1ccccc1
Settings	solubility (mole fraction)
in DMF, 293.15 K	0.15
in DMF, 298.15 K	0.163
in DMF, 303.15 K	0.179
in DMF, 308.15 K	0.196
in DMF, 312.65 K	0.211
in DMF, 316.05 K	0.224
in DMF, 320.35 K	0.242
in THF, 293.35 K	0.074
in THF, 298.15 K	0.0845
in THF, 303.15 K	0.0971
in THF, 308.15 K	0.111
in THF, 313.05 K	0.126
in THF, 318.15 K	0.142
in THF, 323.25 K	0.165
in dichloromethane, 293.25 K	0.121
in dichloromethane, 296.45 K	0.127
in dichloromethane, 299.35 K	0.132
in dichloromethane, 302.25 K	0.138
in dichloromethane, 305.45 K	0.144
in dichloromethane, 308.15 K	0.149
in dichloromethane, 311.35 K	0.155
in ethyl acetate, 293.65 K	0.0221
in ethyl acetate, 298.35 K	0.0271
in ethyl acetate, 304.15 K	0.0332
in ethyl acetate, 308.25 K	0.0391
in ethyl acetate, 314.15 K	0.0487
in ethyl acetate, 318.15 K	0.0576
in ethyl acetate, 323.75 K	0.0716
in methanol, 287.15 K	0.0034
in methanol, 293.15 K	0.0049
in methanol, 298.15 K	0.0067
in methanol, 303.25 K	0.0088
in methanol, 308.05 K	0.0119
in methanol, 313.45 K	0.016
in methanol, 318.15 K	0.0211
in toluene, 291.15 K	0.0073
in toluene, 298.15 K	0.0101
in toluene, 303.05 K	0.0125
in toluene, 308.65 K	0.0157
in toluene, 313.25 K	0.0197
in toluene, 317.95 K	0.0242
in toluene, 323.75 K	0.0316

Source: BigSolDB 2.1
